Assays:
[1] = target: T1, human vitamin D3 receptor (His-tag fusion protein) (Homo sapiens, UniProt P11473); assay: Elution by human serum of vitamin D3 bound to His-tag fusion vitamin D3 receptor protein immobilised on Ni-column, HPLC quantification; type: binding; details: carrier His-tag fusion vitamin D3 receptor protein on Ni-column; 20 ml human serum then 10 ml solution A at 0.1 ml/min
T1 construct: made in house; host or cells: Escherichia coli BL21 (DE3) Codon-plus, vector pQE30 Xa (QIAGEN)
T1 sequence (P11473 1-427): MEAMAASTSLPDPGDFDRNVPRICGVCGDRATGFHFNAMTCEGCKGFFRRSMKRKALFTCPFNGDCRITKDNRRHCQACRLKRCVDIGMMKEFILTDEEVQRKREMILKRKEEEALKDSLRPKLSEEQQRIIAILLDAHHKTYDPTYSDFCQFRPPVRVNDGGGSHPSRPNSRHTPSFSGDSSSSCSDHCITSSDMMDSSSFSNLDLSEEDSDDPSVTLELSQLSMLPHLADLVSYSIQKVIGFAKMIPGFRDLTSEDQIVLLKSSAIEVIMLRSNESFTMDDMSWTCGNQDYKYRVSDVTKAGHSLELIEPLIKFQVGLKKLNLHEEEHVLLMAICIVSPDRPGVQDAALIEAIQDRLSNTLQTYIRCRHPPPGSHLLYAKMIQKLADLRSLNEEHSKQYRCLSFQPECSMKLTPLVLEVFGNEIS
Protocol: (§1) For culture, an LB (Luria-Bertani) medium containing 100 μg/ml ampicillin was used. Preculture was carried out with the use of a 300-mL LB medium contained in a 500-mL Erlenmeyer flask at 37° C. Then, for main culture, 30 mL of the preculture solution was added to a 1.5-L LB medium (containing 100 μg/ml ampicillin) contained in a 3-L baffled Erlenmeyer flask and subjected to shake culture at 37° C. so as to result in 0.6 OD600. Thereafter, IPTG was added thereto to a final concentration of 0.5 mM for expression induction, followed by overnight shake culture at 30° C. Subsequently, cells were collected by centrifugation and washed. The obtained bacterial cells were suspended in 200 mM NaCl, 50 mM sodium phosphate buffer, and 10 mM imidazole (pH 8.0), followed by ultrasonic disintegration for 5 minutes and centrifugation at 44,200×g for 30 minutes. Thus, the supernatant was obtained. The obtained supernatant was introduced at a flow rate of 0.1 ml/min into an Ni-column (Ni-NTA His-Bind Resin: Novagen; column volume: 50 ml) that had been preliminarily equilibrated with a solution A (300 mM NaCl, 50 mM sodium phosphate buffer, 20 mM imidazole, pH 8.0) for immobilization. […]

[2] = target: T2, human albumin (His-tag fusion protein) (Homo sapiens, UniProt P02768); assay: Elution by human serum of vitamin D3 bound to His-tag fusion albumin immobilised on Ni-column, HPLC quantification (Comparative Example 1); type: binding; details: carrier His-tag fusion albumin on Ni-column; human serum 20 ml at 0.1 ml/min, then buffer
T2 construct: made in house; host or cells: Escherichia coli BL21 (DE3) Codon-plus, vector pQE30 Xa (QIAGEN)
Protocol: as §1, with “A human albumin sequence was expressed with the use of Escherichia coli BL21 (DE3) Codon-plus as a His-tag fusion protein (using a vector (pQE30 Xa; QIAGEN)). For” for “For”

[3] = system: osteoporosis model rats (ovariectomized aged rats); assay: Bone regeneration in osteoporosis model rats (ovariectomized aged rats); type: in vivo, rat; details: calcitriol dissolved with vitamin D3 receptor carrier protein; i.v. 3 times per week, 0.3 μg/kg; four months later
Protocol: The resultant was allowed to stand still overnight at 22° C. and eluted with a solution A as in the case of Example 1. The eluate was introduced into a benzamidine column (GE Healthcare Bioscience; HiTrap Benzamidine FF (high sub) column) in a general purification step, during which a high-purity vitamin D3 receptor protein was purified. Accordingly, a drug carrier was obtained.
The obtained liquid was administered 3 times per week via intravenous injection to osteoporosis model rats (ovariectomized aged rats) such that the calcitriol concentration was maintained at 0.3 μg/kg.

T2 sequence (P02768 25-609): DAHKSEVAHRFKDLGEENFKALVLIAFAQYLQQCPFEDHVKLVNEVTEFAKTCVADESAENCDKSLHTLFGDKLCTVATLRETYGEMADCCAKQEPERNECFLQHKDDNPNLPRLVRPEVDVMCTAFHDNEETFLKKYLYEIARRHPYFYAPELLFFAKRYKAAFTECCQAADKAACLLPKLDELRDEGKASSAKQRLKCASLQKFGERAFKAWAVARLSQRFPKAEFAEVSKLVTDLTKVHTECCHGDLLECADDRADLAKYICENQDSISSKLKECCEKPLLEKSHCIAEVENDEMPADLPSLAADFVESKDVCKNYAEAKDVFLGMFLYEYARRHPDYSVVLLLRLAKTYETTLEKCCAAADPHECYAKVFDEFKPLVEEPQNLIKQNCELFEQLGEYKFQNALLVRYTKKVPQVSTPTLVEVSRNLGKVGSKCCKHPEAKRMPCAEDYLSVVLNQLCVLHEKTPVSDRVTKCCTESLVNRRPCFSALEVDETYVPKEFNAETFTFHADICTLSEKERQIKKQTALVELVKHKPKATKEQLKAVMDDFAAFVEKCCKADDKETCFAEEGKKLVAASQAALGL

Structure (SMILES) | amount of vitamin D3 eluted from the column, of the total amount of bound vitamin [1] | amount of vitamin D3 eluted from the column, of the total amount of bound vitamin [2] | induction of bone regeneration [3]
C=C1CC[C@H](O)C/C1=C/C=C1\CCC[C@]2(C)[C@@H]([C@H](C)CCCC(C)C)CC[C@@H]12 [Vitamin D3, vitamin D3] | approximately 5% | approximately 70% | 
C=C1/C(=C\C=C2/CCC[C@]3(C)[C@@H]([C@H](C)CCCC(C)(C)O)CC[C@@H]23)C[C@@H](O)C[C@@H]1O [calcitriol, 1α,25-dihydroxyvitamin D3] |  |  | induction of bone regeneration in the rats was confirmed

From US20110009497A1, “DRUG-CONTAINING COMPOSITION” (FUJIFILM CORPORATION, priority 2008, published 2011)
